Consider 1 compound from patent US20100202971A1, “COMPOUND HAVING TUMOR-RESIDENT PROPERTY” (priority 2009, published 2010).

The test system of the series is Human giant cell lung carcinoma cells Lu65. The series is described as follows: Biological distribution of biotinated αSQAP in tumor of tumor-bearing nude mice (Alexa 488 avidin staining of tumor slices). Format: in vivo, KSN nude mice. To be noted: tail vein, one hour after administration, FIG. 2. How it is done:
Human giant cell lung carcinoma cells Lu65 were transplanted into six-week-old male KSN nude mice in a number of 1×10^6 for each of the mice, and the mice were bred for 14 days to form a tumor mass of about 100-200 mm^3 volume in each of the mice.
Thereafter, three mice were assigned to each of the following four groups (1) to (4):
(1) a control group wherein physiological saline was administered,
(2) a high dose group wherein biotinated αSQAP was administered in a dose of 50 mg/kg,
(3) a middle dose group wherein biotinated αSQAP was administered in a dose of 5 mg/kg, and […]
The slice was observed by a fluorescence microscope, and the slice was made into an image. Data on the image were input to a computer, and then positive signals of the image were quantified according to image analysis software.
Specifically, binary image processing based on Photoshop was performed to estimate a tumor region emitting fluorescence through the labeling material Alexa 488 in the slice. Thereafter, a portion (fraction) containing tumor tissues was selected from the visual field, and the number of pixels of the Alexa 488 positive region (black region) and the entire region were counted and the ratio of the positive region was calculated according to the formula: […]

With `O=C(CCCC[C@@H]1SC[C@@H]2NC(=O)N[C@@H]21)NCCC(=O)OCCCO[C@H]1O[C@H](CS(=O)(=O)[O-])[C@@H](O)[C@H](O)[C@H]1O.O=C(CCCC[C@@H]1SC[C@@H]2NC(=O)N[C@@H]21)NCCC(=O)OCCCO[C@H]1O[C@H](CS(=O)(=O)[O-])[C@@H](O)[C@H](O)[C@H]1O.[Ca+2]` [biotinated αSQAP, 3-O-(6-sulfo-α-D-quinovopyranosyl)-1-O-(biotinyl-β-alanyl)-propane-1,3-diol calcium salt], under “50 mg/kg”, the amount in tumor entry is given as “large”. Further, the “staining of tumor tissues (Alexa 488 positive region)” value (high dose group 50 mg/kg) was “intensely dyed”.
